Assay results from the supplement of paper PMC5722580.

Experiments:
KAI3 = assay: drug sensitivity score (viability inhibition); higher = more sensitive; settings: 72 h; IL2 2.5 ng/ml
Procedure: (§1)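 NK-cell leukemia/lymphoma cell lines (3,000 cells/well) were cultured with IL2 2.5 ng/ml in 384-well drug plates (5-8 concentrations over a 10,000-fold range) for 72 h at 37 C; viability was read with CellTiter-Glo. DSS is a normalised area under the dose-response curve; the experiment was repeated twice.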

KHYG-1 = assay: as above; settings: 72 h; IL2 2.5 ng/ml
Procedure: as §1

NK-92 = assay: as above; settings: 72 h; IL2 2.5 ng/ml
Procedure: as §1

NK-YS = assay: as above; settings: 72 h; IL2 2.5 ng/ml
Procedure: as §1

NKL = assay: as above; settings: 72 h; IL2 2.5 ng/ml
Procedure: as §1

SNK6 = assay: as above; settings: 72 h; IL2 2.5 ng/ml
Procedure: as §1

YT = assay: as above; settings: 72 h; IL2 2.5 ng/ml
Procedure: as §1

HEK293-SIE STAT3 WT = assay: drug sensitivity score (inhibition of STAT3 luciferase reporter); higher = stronger inhibition; settings: 6 h; STAT3: WT; IL6 100 ng/ml
Procedure: (§2)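 HEK293 cells with a STAT3-inducible (SIE) luciferase reporter, stably expressing WT STAT3 (IL6 100 ng/ml) or Y640F STAT3 (no IL6), were incubated 6 h with drugs in 384-well plates (5-8 concentrations over a 10,000-fold range); luciferase was read with ONE-Glo. DSS is a normalised area under the dose-response curve; values are the mean of two experiments.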

HEK293-SIE STAT3 Y640F = assay: as above; settings: 6 h; IL6 0 ng/ml
Procedure: as §2

| SMILES | drug sensitivity score (KAI3) [DSS] | drug sensitivity score (KHYG-1) [DSS] | drug sensitivity score (NK-92) [DSS] | drug sensitivity score (NK-YS) [DSS] | drug sensitivity score (NKL) [DSS] | drug sensitivity score (SNK6) [DSS] | drug sensitivity score (YT) [DSS] | drug sensitivity score (HEK293-SIE STAT3 WT) [DSS] | drug sensitivity score (HEK293-SIE STAT3 Y640F) [DSS] |
| --- | --- | --- | --- | --- | --- | --- | --- | --- | --- |
| COc1ccc(-c2cc3c(C)nc(N)nc3n([C@H]3CC[C@H](OCCO)CC3)c2=O)cn1 | 9.49 | 13.9 | 19.2 | 15 | 15.4 | 5.96 | 16.1 | 14.9 | 9.1 |
| C[C@@]1(C(=O)Nc2ccc(F)nc2)CCCN1c1nc(Nc2cc(C3CC3)n[nH]2)c2cccn2n1 | 4.45 | 7.86 | 5.6 | 11.1 | 2.75 | 10.9 | 5.74 | 1.95 | 8.23 |
| Cc1sc2c(c1C)C(c1ccc(Cl)cc1)=N[C@@H](CC(=O)OC(C)(C)C)c1nnc(C)n1-2 [(+)-JQ1] | 4.93 | 18.9 | 3.16 | 15.9 | 13.7 | 12.4 | 11.1 | 16.6 | 0 |
| N#C/C(=C\c1ccc(O)c(O)c1)C(=O)NCc1ccccc1 [AG490] | 8.31 | 8.13 | 9.21 | 13.3 | 10.3 | 10.2 | 8.84 | 1.18 | 1.9 |
| Cc1cc(Nc2nc(N[C@@H](C)c3ncc(F)cn3)ncc2Cl)[nH]n1 [AZD1480] | 17.4 | 18.3 | 7.65 | 10.7 | 13.7 | 12.1 | 6.65 | 17.9 | 8.77 |
| COc1ccc(-c2ccc3c(N4CCOC[C@@H]4C)nc(N4CCOC[C@@H]4C)nc3n2)cc1CO [AZD8055] | 14.1 | 16.7 | 16.3 | 19.6 | 23.3 | 14.9 | 16.7 | 20.2 | 18.6 |
| CN1CC[C@H](c2c(O)cc(O)c3c(=O)cc(-c4ccccc4Cl)oc23)[C@H](O)C1 [Alvocidib] | 24.1 | 21.8 | 22.6 | 22.5 | 21.4 | 13.2 | 23 | 29.5 | 26.5 |
| CC(=O)OC[C@H]1O[C@@H]([S-])[C@H](OC(C)=O)[C@@H](OC(C)=O)[C@@H]1OC(C)=O.CCP(CC)CC.[Au+] [Auranofin] | 2.72 | 5.84 | 4.86 | 8.08 | 8.44 | 8.28 | 8.63 | 5.9 | 2.05 |
| CNC(=O)c1ccccc1Sc1ccc2c(/C=C/c3ccccn3)n[nH]c2c1 [Axitinib] | 10.9 | 10.9 | 6.72 | 10.2 | 8.05 | 8.94 | 8.91 | 0 | 0 |
| COc1c(C)cnc(Cn2cnc3c(Cl)nc(N)nc32)c1C [BIIB021] | 26 | 26.4 | 23 | 24.7 | 21.9 | 25.4 | 22.2 | 15.3 | 9.85 |
| COc1cc(Nc2c(C#N)cnc3cc(OCCCN4CCN(C)CC4)c(OC)cc23)c(Cl)cc1Cl [Bosutinib] | 6.47 | 7.49 | 7.49 | 5.25 | 5.37 | 5.08 | 5.38 | 0.775 | 8.4 |
| CCN(CC)CCOc1ccc(C(=C(Cl)c2ccccc2)c2ccccc2)cc1 [Clomifene] | 5.61 | 5.07 | 5.49 | 2.67 | 4.4 | 5.13 | 4.23 | 1.9 | 0 |
| CC1(COc2ccc3c(c2)ncn3-c2ccc3cccc(N4CCC(N)CC4)c3n2)COC1 [Crenolanib] | 5.4 | 7.73 | 9.79 | 7.55 | 10.3 | 9.96 | 7.98 | 3.05 | 4.25 |
| O=P1(N(CCCl)CCCl)NCCCO1 (stereo not given) [Cyclophosphamide] | 1.89 | 0 | 0 | 0.435 | 0 | 0.54 | 0 | 2.6 | 1.17 |
| Cc1c2oc3c(C)ccc(C(=O)N[C@@H]4C(=O)N[C@H](C(C)C)C(=O)N5CCC[C@H]5C(=O)N(C)CC(=O)N(C)[C@@H](C(C)C)C(=O)O[C@@H]4C)c3nc-2c(C(=O)N[C@@H]2C(=O)N[C@H](C(C)C)C(=O)N3CCC[C@H]3C(=O)N(C)CC(=O)N(C)[C@@H](C(C)C)C(=O)O[C@@H]2C)c(N)c1=O [Dactinomycin] | 23.8 | 29.3 | 16.5 | 38.2 | 36.5 | 32.2 | 35 | 18.9 | 18.4 |
| Cn1c(=O)n(-c2ccc(C(C)(C)C#N)cc2)c2c3cc(-c4cnc5ccccc5c4)ccc3ncc21 [Dactolisib] | 10.3 | 14 | 12 | 15.8 | 18.2 | 8.33 | 13.4 | 15.1 | 12.8 |
| CO[C@@H](C(=O)N1Cc2[nH]nc(NC(=O)c3ccc(N4CCN(C)CC4)cc3)c2C1)c1ccccc1 [Danusertib] | 7.82 | 13 | 6.91 | 12.9 | 5.43 | 14.4 | 6.55 | 6.8 | 5.2 |
| Cc1cc(Nc2cc(CN3CCOCC3)c3nc(C)c(Cc4ccc(Cl)cc4F)n3n2)n[nH]1 [Gandotinib] | – | – | – | – | – | – | – | 24 | 8.4 |
